Positions of bridges follow the written chain, without caps; N, C: chain ends. Non-standard residues stand in square brackets, D forms with d. Residues, ends and D or L forms follow the SMILES beside them.
Experiments:
[1] = Solubility in aqueous conditions; assay type: physicochemical
[2] = biological target: human DUB module (hDUBm) on H2B-K120 ubiquitinated nucleosomes (Homo sapiens, UniProt Q9UPT9); experiment: Deubiquitination of nucleosomal H2B by hDUBm; details: 1 μM cyclic peptide, 200 nM hDUBm, 1 uM H2B-Ub nucleosome
Experimental: Deubiquitination of nucleosomal H2B Recombinant human mononucleosomes containing histone H2B ubiquitinated at K120 (H2B-Ub) were obtained from Epicypher (dNuc, 16-0370) and diluted to 2 μM with reaction buffer. Both hDUBm and inhibitor peptides were diluted from concentrated stocks with reaction buffer (10 mM HEPES pH 7.5, 150 mM NaCl, 1 μM ZnCl2, and 0.2 mM TCEP) to a final concentration of 400 nM DUB module and 2 μM cyclic peptide and incubated at 37° C. for 20 minutes. Reactions were initiated by combining equal volumes of the enzyme-peptide mixture and nucleosomes, resulting in final concentrations of 200 nM hDUBm, 1 μM cyclic peptide, and 1 uM H2B-Ub nucleosome. Time points of the reaction were quenched with SDS sample buffer, separated by SDS-PAGE (Invitrogen, Bolt gels), and stained with Sypro Ruby (Life Technologies). Gels were imaged and quantitated (BioRad product info), using the H3 band as an independent load control to normalize the band intensities of H2B-Ub. Experiments were done in triplicate and analyzed using Prism (GraphPad).
To test the effectiveness of the inhibitors on a native-like substrate, the ability of each cyclic peptide to inhibit DUB activity on nucleosomes ubiquitinated at H2B-K120 was assayed.

[3] = biological target: T1, human DUB module (hDUBm; USP22, ATXN7, ATXN7L3, ENY2) (Homo sapiens, UniProt Q9UPT9); experiment: Ub-AMC deubiquitination assay, human DUB module; assay type: biochemical; details: 200 nM DUB, 1 μM Ub-AMC; read-out: Ki (apparent, Morrison approximation), Ub-AMC cleavage
T1 construct: 6xHis (TEV-cleavable) (N, cleaved yes); made in house; host or cells: High Five insect cells (baculovirus, Bac2Bac; virus amplified in Sf9)
Experimental: FIG. 2A is a graph of initial rates of Ub-AMC cleavage by hDUB module as a function of substrate concentration. […] FIGS. 2B-2G are graphs of each cyclic peptide, as indicated, tested for its ability to inhibit Ub-AMC cleavage in the presence of increasing amounts of the peptide into a reaction with a fixed amount of DUB (200 nM) and Ub-AMC (1 μM). Ki values were determined for each curve using the Morrison Ki approximation.
Ub-AMC deubiquitination assay A working stock mixture of either yDUBm or hDUBm was prepared in the presence of either DMSO (mock) or a dilution series of the cyclic peptide. […] Each enzyme:peptide mixture was incubated for 30 min at 30° C. in the case of yDUBm, and 37° C. in the case of hDUBm, with each enzyme complex at 1.033× the desired concentration (207 nM). The enzyme:peptide mixture ([…]) was added to 1 μL of 30 μM U b-AMC (7-amino-4-methylcoumarin) (Boston Biochem), for a final concentration of 200 nM DUBm, the indicated cyclic peptide concentration, and 1 μM Ub-AMC. DUB activity was measured by observing the increase in AMC fluorescence in a plate reader, and the initial rate of fluorescence increase was calculated and plotted as a function of inhibitor concentration (FIGS. 2B-2I). The Ki values were determined using the Morrison approximation of enzyme inhibition equilibria within Prism (Graphpad).
The cyclic peptides that constituted potential inhibitors were chemically synthesized by solid phase peptide synthesis and tested for their effectiveness and specificity as inhibitors in vitro. Since the enzyme kinetics of the human DUB module had not previously been characterized, hDUBm activity was assayed using the fluorogenic substrate, ubiquitin-amino methyl coumarin (Ub-AMC) (FIG. 2A).

[4] = test system: H2B-Ub levels in HEK293T cells; experiment: Cell-based assay of H2B-Ub levels (histone extraction, western blot); set-up: species or system human; details: 5 μM, two hours, normalized to H3
Experimental: Bottom: anti-histone H3 loading control.
Cell-based Assay HEK293T cells were purchased from ATCC (CRL-3216) and cultures were expanded for at least 10 passages in Dulbecco's Modified Eagle Medium (DMEM) supplemented with 10% fetal bovine serum (FBS) in T75 flasks incubated in a 37° C. and 5% CO2 cabinet before any manipulation. Once cells were mature, HEK293T cells were grown to 80% confluence in 6-well plates, the media were aspirated, and media with reduced FBS (DMEM, 2% FBS) and 5 μM cyclic peptide were introduced. After two hours, the media were aspirated, and the cells were collected by scraping (˜1×10^6 cells per well). The cells were then washed in 1× PBS twice followed by histone extraction (Active Motif). The extracted histones were then western blotted for H2B-Ub levels (Cell Signaling, 5546S), using H3 western blotting (Abcam, ab1791) to normalize loading.
Each cyclic peptide was introduced as a supplement to the growth medium of HEK293T cells, the histones were extracted from each culture after two hours of exposure, and the levels of H2B-Ub was quantified by immunoblot. Levels of H2B-Ub were compared to control cells that were treated with DMSO, the yD1 cyclic peptide that has no effect on USP22 activity, or the broad-spectrum cell permeable DUB inhibitor. PR-619. The relative abundance of histone H3 was used to control for differences in nuclear extraction.

T1 sequence (Q9UPT9 whole entry): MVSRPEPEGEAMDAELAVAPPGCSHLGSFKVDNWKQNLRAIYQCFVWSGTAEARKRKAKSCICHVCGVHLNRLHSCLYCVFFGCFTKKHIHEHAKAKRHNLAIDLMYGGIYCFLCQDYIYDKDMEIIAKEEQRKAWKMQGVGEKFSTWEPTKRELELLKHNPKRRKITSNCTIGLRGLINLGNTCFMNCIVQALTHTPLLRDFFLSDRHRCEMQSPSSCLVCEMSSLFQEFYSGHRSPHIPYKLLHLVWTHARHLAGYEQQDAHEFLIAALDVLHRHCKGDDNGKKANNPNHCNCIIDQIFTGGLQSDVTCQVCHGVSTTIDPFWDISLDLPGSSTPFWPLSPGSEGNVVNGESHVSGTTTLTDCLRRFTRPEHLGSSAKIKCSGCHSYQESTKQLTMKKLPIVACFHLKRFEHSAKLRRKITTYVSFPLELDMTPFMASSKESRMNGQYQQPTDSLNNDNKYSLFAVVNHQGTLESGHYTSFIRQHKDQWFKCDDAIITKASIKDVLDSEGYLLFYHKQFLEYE
T1 sequence (O15265 3-151 partner limits assumed): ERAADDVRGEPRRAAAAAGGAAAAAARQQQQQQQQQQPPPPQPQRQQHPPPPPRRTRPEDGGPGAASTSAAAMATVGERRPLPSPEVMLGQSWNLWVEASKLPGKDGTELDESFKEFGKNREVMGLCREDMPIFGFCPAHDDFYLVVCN
T1 sequence (Q14CW9 whole entry partner): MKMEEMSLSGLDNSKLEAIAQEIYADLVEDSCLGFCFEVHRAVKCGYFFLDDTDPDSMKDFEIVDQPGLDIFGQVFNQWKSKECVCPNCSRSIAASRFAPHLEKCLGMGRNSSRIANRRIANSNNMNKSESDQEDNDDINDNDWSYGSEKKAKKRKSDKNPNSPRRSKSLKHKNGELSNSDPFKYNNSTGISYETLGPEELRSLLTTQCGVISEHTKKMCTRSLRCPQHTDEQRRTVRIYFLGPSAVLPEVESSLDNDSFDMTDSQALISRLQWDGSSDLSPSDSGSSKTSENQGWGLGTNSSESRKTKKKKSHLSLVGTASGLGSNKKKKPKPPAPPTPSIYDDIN
T1 sequence (Q9NPA8 whole entry partner): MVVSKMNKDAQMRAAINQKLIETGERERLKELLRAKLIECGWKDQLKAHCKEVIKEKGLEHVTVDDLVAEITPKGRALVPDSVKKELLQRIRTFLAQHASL
Chain of human DUB module (hDUBm) on H2B-K120 ubiquitinated nucleosomes (Q9UPT9 whole entry): as the sequence (Q9UPT9 whole entry) above
Chain of human DUB module (hDUBm) on H2B-K120 ubiquitinated nucleosomes (O15265 3-151 partner limits assumed): as the sequence (O15265 3-151 partner limits assumed) above
Chain of human DUB module (hDUBm) on H2B-K120 ubiquitinated nucleosomes (Q14CW9 whole entry partner): as the sequence (Q14CW9 whole entry partner) above
Chain of human DUB module (hDUBm) on H2B-K120 ubiquitinated nucleosomes (Q9NPA8 whole entry partner): as the sequence (Q9NPA8 whole entry partner) above

| Structure (SMILES) | Ki [3] | further results |
| --- | --- | --- |
| CC(C)C[C@@H]1NC(=O)[C@H](Cc2ccc(O)cc2)NC(=O)CSC[C@@H](C(N)=O)NC(=O)[C@H](Cc2ccc(O)cc2)NC(=O)[C@H](CC(C)C)NC(=O)[C@H](CCCNC(=N)N)NC(=O)[C@H](CC(C)C)NC(=O)[C@H](CO)NC(=O)[C@H](Cc2c[nH]c3ccccc23)NC(=O)CNC(=O)[C@H](Cc2ccccc2)NC(=O)[C@H](CO)NC(=O)[C@H](Cc2ccccc2)NC(=O)[C@H](C)NC(=O)[C@H](CO)NC(=O)[C@H](CC(=O)O)NC(=O)[C@H](Cc2c[nH]cn2)NC1=O [yL1] ({CH2CO}-YLHDSAFSFGWSLRLYC-NH2; thioether N-17) |  | solubility in aqueous conditions [1]: insoluble in aqueous conditions |
| CC(C)C[C@@H]1NC(=O)[C@H](Cc2c[nH]c3ccccc23)NC(=O)[C@H](CO)NC(=O)[C@H](CCCNC(=N)N)NC(=O)[C@H](CC(C)C)NC(=O)[C@H](CCCNC(=N)N)NC(=O)[C@H](Cc2ccc(O)cc2)NC(=O)[C@H](Cc2ccc(O)cc2)NC(=O)[C@H](CO)NC(=O)[C@@H]2CCCN2C(=O)CNC(=O)[C@H](CC(N)=O)NC(=O)[C@@H](Cc2ccc(O)cc2)NC(=O)CSC[C@@H](C(N)=O)NC(=O)[C@H](CO)NC(=O)[C@H](CO)NC1=O [hD3] ({CH2CO}-[dY]NGPSYYRLRSWLSSC-NH2; thioether N-16) |  | inhibition of nucleosomal H2B-Ub cleavage by hDUBm [2]: inhibit the enzymatic activity |
| CC[C@H](C)[C@@H]1NC(=O)[C@H](Cc2c[nH]c3ccccc23)NC(=O)[C@@H](Cc2ccc(O)cc2)NC(=O)CSC[C@@H](C(N)=O)NC(=O)[C@H](Cc2ccccc2)NC(=O)[C@H](CO)NC(=O)[C@H](CCCCN)NC(=O)[C@H](CO)NC(=O)[C@H](CC(C)C)NC(=O)CNC(=O)[C@H](CCCNC(=N)N)NC(=O)[C@H](Cc2ccc(O)cc2)NC(=O)[C@H](CO)NC(=O)[C@H](Cc2c[nH]cn2)NC(=O)[C@H]([C@@H](C)O)NC1=O [hD4] ({CH2CO}-[dY]WITHSYRGLSKSFC-NH2; thioether N-15) | 804 nM |  |
| CC[C@H](C)[C@@H]1NC(=O)[C@H](Cc2c[nH]cn2)NC(=O)[C@H](CC(=O)O)NC(=O)[C@H](CO)NC(=O)[C@H](Cc2c[nH]c3ccccc23)NC(=O)[C@H](Cc2ccccc2)NC(=O)[C@H](CCCNC(=N)N)NC(=O)[C@H](Cc2ccccc2)NC(=O)[C@H](CC(N)=O)NC(=O)[C@H](CC(C)C)NC(=O)[C@H]([C@@H](C)O)NC(=O)[C@H](Cc2ccc(O)cc2)NC(=O)CSC[C@@H](C(N)=O)NC(=O)[C@H](CO)NC(=O)[C@H](Cc2ccc(O)cc2)NC(=O)[C@H](Cc2c[nH]c3ccccc23)NC(=O)[C@H](CO)NC1=O [hL1] ({CH2CO}-YTLNFRFWSDHISWYSC-NH2; thioether N-17) | < 100 nM |  |
| C[C@@H]1NC(=O)CNC(=O)[C@H](CCCNC(=N)N)NC(=O)[C@H](Cc2ccc(O)cc2)NC(=O)[C@H](CO)NC(=O)[C@H](Cc2c[nH]c3ccccc23)NC(=O)[C@H](CCC(N)=O)NC(=O)[C@H](Cc2c[nH]cn2)NC(=O)[C@@H](Cc2ccc(O)cc2)NC(=O)CSC[C@@H](C(N)=O)NC(=O)[C@H](CO)NC(=O)[C@H](CCCNC(=N)N)NC(=O)[C@H](Cc2ccc(O)cc2)NC(=O)[C@H]([C@@H](C)O)NC1=O [hD2] ({CH2CO}-[dY]HQWSYRGATYRSC-NH2; thioether N-14) | < 100 nM |  |
| N#CSc1cc(SC#N)c(N)nc1N [PR-619] |  | change of H2B-Ub levels [4]: minor increase |
